Data reported in the NIST ThermoML archive (doi:10.1021/je900124n).
“And” between values parts separate entries of the source, which are not always exact repeats. Identical values can stand only once.

Settings: Fluid (supercritical or subcritical phases), Buoyancy - hydrostatic balance with magnetic suspension - two sinkers

CCC [propane]
Settings	mass density
265 K, 2141.2 kPa	542.504 kg/m3
265 K, 2141.4 kPa	542.503 kg/m3
265 K, 2144 kPa	542.507 kg/m3 and 542.508 kg/m3
265 K, 2144.3 kPa	542.51 kg/m3
265 K, 2144.8 kPa	542.509 kg/m3
265 K, 2145 kPa	542.509 kg/m3
265 K, 3759.4 kPa	545.171 kg/m3
265 K, 3760 kPa	545.17 kg/m3
265 K, 3760.5 kPa	545.17 kg/m3
265 K, 3766.3 kPa	545.182 kg/m3
265 K, 3771.8 kPa	545.194 kg/m3
265 K, 4142.6 kPa	545.789 kg/m3
265 K, 4145 kPa	545.794 kg/m3
265 K, 4149.1 kPa	545.797 kg/m3
265 K, 4150.8 kPa	545.802 kg/m3
265 K, 8329.8 kPa	552.117 kg/m3
265 K, 8330.5 kPa	552.12 kg/m3
265 K, 8330.7 kPa	552.117 kg/m3
265 K, 8331.9 kPa	552.121 kg/m3
265 K, 8332.3 kPa	552.121 kg/m3
265 K, 12135 kPa	557.342 kg/m3
265 K, 12136 kPa	557.343 kg/m3
265 K, 12137 kPa	557.343 kg/m3
265 K, 16242 kPa	562.533 kg/m3
265 K, 16243 kPa	562.535 kg/m3
265 K, 16245 kPa	562.537 kg/m3
265 K, 16246 kPa	562.537 kg/m3
265 K, 20184 kPa	567.153 kg/m3 and 567.155 kg/m3
265 K, 20189 kPa	567.157 kg/m3
265 K, 20190 kPa	567.159 kg/m3
265 K, 20191 kPa	567.16 kg/m3
265 K, 24029 kPa	571.368 kg/m3
265 K, 24030 kPa	571.371 kg/m3
265 K, 24031 kPa	571.373 kg/m3 and 571.369 kg/m3
265 K, 30007 kPa	577.453 kg/m3 and 577.455 kg/m3 and 577.457 kg/m3
265 K, 30010 kPa	577.458 kg/m3 and 577.459 kg/m3
265 K, 34915 kPa	582.091 kg/m3
265 K, 34916 kPa	582.091 kg/m3 and 582.092 kg/m3 and 582.09 kg/m3
280 K, 2010.8 kPa	522.313 kg/m3
280 K, 2011 kPa	522.314 kg/m3
280 K, 2012.2 kPa	522.319 kg/m3
280 K, 2013 kPa	522.322 kg/m3
280 K, 2016.3 kPa	522.324 kg/m3
280 K, 2020 kPa	522.336 kg/m3
280 K, 2020.8 kPa	522.337 kg/m3
280 K, 2021.2 kPa	522.338 kg/m3
280 K, 2021.3 kPa	522.335 kg/m3
280 K, 2021.4 kPa	522.337 kg/m3
280 K, 4077.8 kPa	526.538 kg/m3
280 K, 4078.2 kPa	526.542 kg/m3
280 K, 4078.3 kPa	526.539 kg/m3
280 K, 4078.4 kPa	526.539 kg/m3
280 K, 8037.8 kPa	533.834 kg/m3
280 K, 8038.9 kPa	533.835 kg/m3
280 K, 8039.6 kPa	533.833 kg/m3
280 K, 8040 kPa	533.836 kg/m3
280 K, 8040.4 kPa	533.836 kg/m3
280 K, 12164 kPa	540.567 kg/m3
280 K, 12165 kPa	540.568 kg/m3
280 K, 12166 kPa	540.568 kg/m3
280 K, 12167 kPa	540.57 kg/m3
280 K, 16052 kPa	546.301 kg/m3 and 546.302 kg/m3
280 K, 16053 kPa	546.299 kg/m3 and 546.301 kg/m3
280 K, 16054 kPa	546.301 kg/m3
280 K, 20169 kPa	551.856 kg/m3
280 K, 20170 kPa	551.857 kg/m3
280 K, 20171 kPa	551.857 kg/m3
280 K, 20173 kPa	551.86 kg/m3
280 K, 24174 kPa	556.843 kg/m3
280 K, 24175 kPa	556.845 kg/m3
280 K, 24178 kPa	556.848 kg/m3
280 K, 29900 kPa	563.396 kg/m3 and 563.395 kg/m3
280 K, 29902 kPa	563.397 kg/m3 and 563.398 kg/m3
280 K, 35491 kPa	569.254 kg/m3
280 K, 35492 kPa	569.255 kg/m3
280 K, 35494 kPa	569.255 kg/m3
280 K, 35496 kPa	569.259 kg/m3
300 K, 2095.9 kPa	492.916 kg/m3
300 K, 2096.6 kPa	492.92 kg/m3
300 K, 2096.7 kPa	492.918 kg/m3
300 K, 2096.8 kPa	492.918 kg/m3
300 K, 2097 kPa	492.917 kg/m3
300 K, 4036.5 kPa	498.494 kg/m3
300 K, 4037.2 kPa	498.496 kg/m3
300 K, 4037.3 kPa	498.493 kg/m3
300 K, 4037.4 kPa	498.494 kg/m3
300 K, 8037.7 kPa	508.391 kg/m3
300 K, 8038 kPa	508.393 kg/m3
300 K, 8038.1 kPa	508.394 kg/m3
300 K, 8038.4 kPa	508.391 kg/m3
300 K, 8038.7 kPa	508.393 kg/m3
300 K, 12024 kPa	516.758 kg/m3
300 K, 12025 kPa	516.758 kg/m3 and 516.759 kg/m3
300 K, 16033 kPa	524.122 kg/m3 and 524.123 kg/m3
300 K, 16035 kPa	524.125 kg/m3
300 K, 16037 kPa	524.128 kg/m3
300 K, 20366 kPa	531.21 kg/m3
300 K, 20369 kPa	531.216 kg/m3
300 K, 20370 kPa	531.214 kg/m3
300 K, 23908 kPa	536.474 kg/m3 and 536.475 kg/m3
300 K, 23909 kPa	536.476 kg/m3
300 K, 23911 kPa	536.479 kg/m3
300 K, 29891 kPa	544.528 kg/m3
300 K, 29892 kPa	544.529 kg/m3 and 544.528 kg/m3
300 K, 35152 kPa	550.916 kg/m3
300 K, 35153 kPa	550.918 kg/m3 and 550.916 kg/m3
300 K, 35154 kPa	550.917 kg/m3
310 K, 261.67 kPa	4.6501 kg/m3
310 K, 261.68 kPa	4.6501 kg/m3 and 4.6502 kg/m3
310 K, 261.69 kPa	4.6502 kg/m3
310 K, 460.64 kPa	8.455 kg/m3 and 8.4548 kg/m3 and 8.4549 kg/m3
310 K, 760.19 kPa	14.7402 kg/m3
310 K, 760.2 kPa	14.7403 kg/m3
310 K, 760.25 kPa	14.7415 kg/m3
310 K, 760.28 kPa	14.7419 kg/m3 and 14.7421 kg/m3
